# Laboratory results: patent US9981969B2, “Imidazole derivatives and methods of use thereof for improving the pharmacokinetics of a drug” (MERCK SHARP & DOHME CORP., priority 2013, dated 2018)
# pIC50: −log10 of the molar value.
# How the values were obtained:
# human CYP11B2 = biological target: T1, human CYP11B2 (Homo sapiens, UniProt P19099); assay: IC50 vs CYP11B2 by measurement of aldosterone synthesis in V79 cells; assay type: cell-based; settings: V79 cells expressing human CYP11B2, 750 nM DOC, aldosterone HTRF
# T1 construct: expressed in transfected cells
# T1 sequence (P19099 25-503): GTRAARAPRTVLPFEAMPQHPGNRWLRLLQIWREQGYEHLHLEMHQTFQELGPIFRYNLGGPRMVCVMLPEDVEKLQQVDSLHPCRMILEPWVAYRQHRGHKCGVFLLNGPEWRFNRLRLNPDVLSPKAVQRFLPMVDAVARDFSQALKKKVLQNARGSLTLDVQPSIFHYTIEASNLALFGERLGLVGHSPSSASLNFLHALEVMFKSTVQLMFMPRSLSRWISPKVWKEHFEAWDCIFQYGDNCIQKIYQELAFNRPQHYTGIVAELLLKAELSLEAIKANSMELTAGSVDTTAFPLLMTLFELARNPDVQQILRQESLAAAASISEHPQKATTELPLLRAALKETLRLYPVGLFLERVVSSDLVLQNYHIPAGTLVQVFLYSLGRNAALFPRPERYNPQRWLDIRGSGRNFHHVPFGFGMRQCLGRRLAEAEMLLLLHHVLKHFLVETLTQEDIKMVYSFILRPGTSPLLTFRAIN
# Protocol: (§1) This assay was performed in a standard 384-well plate design using cultured V79 cells stably expressing human CYP11B1 or human CYP11B2. Test compounds at 10 concentrations (for example, 10000, 3333.3, 1111.1, 370.4, 123.5, 41.2, 13.7, 4.6, 1.5 and 0.5 nM) were added in 384-well plate after the cell-seeding procedure. The incubation substrate contains 1500 nM RSS for CYP11B1 assay/750 nM DOC for CYP11B2 assay. The Cortisol/Aldosterone production of cell culture supernatant was determined by Cortisol/Aldosterone HTRF kit after for about 15 hours incubation at RT (protect from light). IC50 (nM) values were calculated from the percent inhibition observed for each test compound at 10 concentrations.
# (§2) The assay plate was read using Envision (Perkin Elmer, Waltham, Mass.) at 665 nm and 590 nm (using Filter Barcode of 217#, 205#; Mirror Barcode of 446#).
# (§3) Data are analyzed using Assay Data Analyzer. All ratio data (665 nm/590 nm) are back calculated according to the standard curve, resulting in Cortisol/Aldosterone concentrations. IC50 (nM) values are reported as the Inflection Point (IP) of a four parameter fit of the titration data.
# (§4) The following equation was used to calculate the % inhibition: % Activity=100×{1−(Sample_back calculated Cortisol/Aldosterone concentration−LC_back calculated Cortisol/Aldosterone concentration)/(HC_back calculated Cortisol/Aldosterone concentration−LC_back calculated Cortisol/Aldosterone concentration)} Curve Fitting: Four Parameter Logistic: […]
# CYP2C19 = biological target: T2, CYP2C19 (Homo sapiens, UniProt P33261); assay: Cocktail assay for CYPs in human liver microsomes, mephenytoin 4′-hydroxylation (2C19); assay type: biochemical; settings: 30 μM mephenytoin, 10 min at 37° C.
# T2 construct: 0.1 mg/mL protein human liver microsomes (BD Gentest); tissue BD Gentest; host or cells: human liver microsomes
# Protocol: (§5) This assay was performed in a standard 96-well plate design. IC50 values were calculated from the percent inhibition observed for each test compound at 6 concentrations (for example, 0.0032, 0.016, 0.08, 0.4, 2 and 10 μM). The incubation substrate mix contains 10 μM phenacetin (1A2), 5 μM diclofenac (2C9), 30 μM mephenytoin (2C19), 5 μM dextromethorphan (2D6) and 2 μM midazolam (3A4), 0.1 mg/mL protein human liver microsomes (BD Gentest), 1 mM NAPDH, 3.3 mM MgCl2 and 100 mM potassium phosphate buffer (pH 7.4). The production of the metabolite of each probe substrate was determined after incubation for 10 min at 37° C. Quantitation of the metabolite peak area ratio against an internal standard (tolbutamide) was determined by LC/MS/MS analysis following acetonitrile treatment of the incubations.
# (§6) Samples were analyzed in the MRM mode with a SCIEX API-4000 mass spectrometer (Applied Biosystems, Foster City, Calif.), with a Shimadzu LC-20 AD pump (Shimadzu corporation, Kyoto, JP) and a CTC PAL autosampler (Agilent Technologies, Switzerland). A Phenomenex, Luna, 5 μm, 100A, 2.00×30 mm HPLC column was used for the separation. The mobile phases were: (A) 0.1% formic acid in water and (B) 0.1% formic acid in acetonitrile. The binary gradient was as follows. AutoSampler: CTC PAL
# (§7) The peak area ratio of the analyte to the internal standard was used to quantify the metabolite. The values of peak area ratios in the presence of test compound were compared to those of maximum or minimum controls and were expressed as % inhibition by interpolating between the maximum and minimum peak area ratios. Incubations with no inhibitor were defined as the maxima. The following equation was used to calculate the % inhibition: [1−[(X−Low control)/(High control−Low control)]]*100 For the IC50 calculation, SigmaPlot was used to plot the mean % inhibition versus the test compound concentrations and for non-linear regression analysis of the data. Depending on the range of data points defining the inhibition curve, the data may have been fit to the 4-parameter logistic equation.
# CYP3A4 = biological target: T3, CYP3A4 (Homo sapiens, UniProt P08684); assay: Cocktail assay for CYPs in human liver microsomes, midazolam 1′-hydroxylation (3A4); assay type: biochemical; settings: 2 μM midazolam, 10 min at 37° C.
# T3 construct: 0.1 mg/mL protein human liver microsomes (BD Gentest); tissue BD Gentest; host or cells: human liver microsomes
# Protocol: as §5, §6, §7
# CYP1A2 = biological target: T4, CYP1A2 (Homo sapiens, UniProt P05177); assay: Cocktail assay for CYPs in human liver microsomes, phenacetin O-deethylation (1A2); assay type: biochemical; settings: 10 μM phenacetin, 10 min at 37° C.
# T4 construct: 0.1 mg/mL protein human liver microsomes (BD Gentest); tissue BD Gentest; host or cells: human liver microsomes
# T4 sequence (P05177 1-516): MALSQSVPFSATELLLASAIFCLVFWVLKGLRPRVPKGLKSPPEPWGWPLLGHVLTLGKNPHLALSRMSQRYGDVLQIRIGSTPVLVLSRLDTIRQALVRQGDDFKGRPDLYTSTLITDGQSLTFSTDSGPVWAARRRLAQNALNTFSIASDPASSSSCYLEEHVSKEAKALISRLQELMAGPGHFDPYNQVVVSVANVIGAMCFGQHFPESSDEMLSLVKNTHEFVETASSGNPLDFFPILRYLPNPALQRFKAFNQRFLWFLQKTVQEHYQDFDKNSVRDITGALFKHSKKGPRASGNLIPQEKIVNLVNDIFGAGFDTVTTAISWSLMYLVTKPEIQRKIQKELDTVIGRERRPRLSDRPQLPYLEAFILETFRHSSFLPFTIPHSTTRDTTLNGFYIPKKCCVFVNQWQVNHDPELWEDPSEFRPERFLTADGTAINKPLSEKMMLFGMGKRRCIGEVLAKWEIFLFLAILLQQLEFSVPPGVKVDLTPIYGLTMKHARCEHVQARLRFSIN
# Protocol: as §5, §6, §7
# CYP2D6 = biological target: T5, CYP2D6 (Homo sapiens, UniProt P10635); assay: Cocktail assay for CYPs in human liver microsomes, dextromethorphan O-demethylation (2D6); assay type: biochemical; settings: 5 μM dextromethorphan, 10 min at 37° C.
# T5 construct: 0.1 mg/mL protein human liver microsomes (BD Gentest); tissue BD Gentest; host or cells: human liver microsomes
# Protocol: as §5, §6, §7
# CYP2C9 = biological target: T6, CYP2C9 (Homo sapiens, UniProt P11712); assay: Cocktail assay for CYPs in human liver microsomes, diclofenac 4′-hydroxylation (2C9); assay type: biochemical; settings: 5 μM diclofenac, 10 min at 37° C.
# T6 construct: 0.1 mg/mL protein human liver microsomes (BD Gentest); tissue BD Gentest; host or cells: human liver microsomes
# Protocol: as §5, §6, §7
# human CYP11B1 = biological target: T7, human CYP11B1 (Homo sapiens, UniProt P15538); assay: IC50 vs CYP11B1 by measurement of cortisol synthesis in V79 cells; assay type: cell-based; settings: V79 cells expressing human CYP11B1, 1500 nM RSS, cortisol HTRF
# T7 construct: expressed in transfected cells
# T7 sequence (P15538 25-503): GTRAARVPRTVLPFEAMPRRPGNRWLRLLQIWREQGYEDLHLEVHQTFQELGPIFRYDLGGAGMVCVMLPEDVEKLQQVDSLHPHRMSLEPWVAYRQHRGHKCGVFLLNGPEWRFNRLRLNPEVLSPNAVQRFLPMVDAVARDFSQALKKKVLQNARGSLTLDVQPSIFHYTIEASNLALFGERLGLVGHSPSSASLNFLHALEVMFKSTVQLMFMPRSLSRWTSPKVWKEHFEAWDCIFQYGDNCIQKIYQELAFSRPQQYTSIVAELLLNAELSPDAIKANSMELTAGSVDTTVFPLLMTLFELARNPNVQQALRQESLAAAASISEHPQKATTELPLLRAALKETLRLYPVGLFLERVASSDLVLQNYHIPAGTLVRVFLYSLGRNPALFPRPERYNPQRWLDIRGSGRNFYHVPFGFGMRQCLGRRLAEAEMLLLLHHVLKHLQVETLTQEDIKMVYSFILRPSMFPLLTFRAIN
# Protocol: as §1, §2, §3, §4
# T5 sequence (P10635 whole entry): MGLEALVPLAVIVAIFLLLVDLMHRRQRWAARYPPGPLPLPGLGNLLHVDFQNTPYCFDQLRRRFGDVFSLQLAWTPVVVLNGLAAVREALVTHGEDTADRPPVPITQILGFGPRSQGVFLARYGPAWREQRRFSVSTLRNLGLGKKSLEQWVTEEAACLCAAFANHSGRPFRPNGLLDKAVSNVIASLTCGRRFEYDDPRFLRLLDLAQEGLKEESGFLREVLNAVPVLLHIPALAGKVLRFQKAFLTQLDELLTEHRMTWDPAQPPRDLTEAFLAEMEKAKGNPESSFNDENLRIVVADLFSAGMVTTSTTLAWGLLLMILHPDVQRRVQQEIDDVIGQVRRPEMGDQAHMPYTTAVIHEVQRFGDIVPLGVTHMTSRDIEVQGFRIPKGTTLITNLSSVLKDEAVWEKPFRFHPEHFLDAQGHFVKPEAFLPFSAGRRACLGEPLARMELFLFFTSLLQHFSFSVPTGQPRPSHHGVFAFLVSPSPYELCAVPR
# T2 sequence (P33261 whole entry): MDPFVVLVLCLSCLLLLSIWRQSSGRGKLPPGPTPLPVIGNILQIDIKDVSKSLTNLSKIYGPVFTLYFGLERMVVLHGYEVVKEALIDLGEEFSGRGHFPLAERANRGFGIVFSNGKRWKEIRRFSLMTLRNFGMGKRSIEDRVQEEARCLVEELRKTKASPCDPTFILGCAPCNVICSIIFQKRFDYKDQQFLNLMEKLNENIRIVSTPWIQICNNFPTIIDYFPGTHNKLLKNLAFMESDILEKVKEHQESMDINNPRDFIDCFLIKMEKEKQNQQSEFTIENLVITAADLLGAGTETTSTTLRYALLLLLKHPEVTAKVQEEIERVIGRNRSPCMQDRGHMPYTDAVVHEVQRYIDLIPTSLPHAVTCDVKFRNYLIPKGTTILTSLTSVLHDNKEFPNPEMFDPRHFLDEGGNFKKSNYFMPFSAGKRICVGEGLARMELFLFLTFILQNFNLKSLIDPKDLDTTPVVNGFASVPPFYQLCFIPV
# T3 sequence (P08684 whole entry): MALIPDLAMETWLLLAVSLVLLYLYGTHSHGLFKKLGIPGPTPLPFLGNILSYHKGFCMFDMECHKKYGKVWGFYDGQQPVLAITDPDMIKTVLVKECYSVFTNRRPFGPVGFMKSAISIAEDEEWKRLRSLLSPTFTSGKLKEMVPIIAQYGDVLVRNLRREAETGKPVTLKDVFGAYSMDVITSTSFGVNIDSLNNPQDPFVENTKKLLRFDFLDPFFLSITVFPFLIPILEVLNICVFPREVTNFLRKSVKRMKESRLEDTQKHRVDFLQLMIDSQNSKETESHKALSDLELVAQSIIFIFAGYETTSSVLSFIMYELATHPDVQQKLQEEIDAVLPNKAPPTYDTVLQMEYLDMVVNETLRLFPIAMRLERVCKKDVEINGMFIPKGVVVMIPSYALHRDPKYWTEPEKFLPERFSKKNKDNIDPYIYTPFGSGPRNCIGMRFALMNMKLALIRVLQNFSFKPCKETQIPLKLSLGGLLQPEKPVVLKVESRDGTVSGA
# T6 sequence (P11712 whole entry): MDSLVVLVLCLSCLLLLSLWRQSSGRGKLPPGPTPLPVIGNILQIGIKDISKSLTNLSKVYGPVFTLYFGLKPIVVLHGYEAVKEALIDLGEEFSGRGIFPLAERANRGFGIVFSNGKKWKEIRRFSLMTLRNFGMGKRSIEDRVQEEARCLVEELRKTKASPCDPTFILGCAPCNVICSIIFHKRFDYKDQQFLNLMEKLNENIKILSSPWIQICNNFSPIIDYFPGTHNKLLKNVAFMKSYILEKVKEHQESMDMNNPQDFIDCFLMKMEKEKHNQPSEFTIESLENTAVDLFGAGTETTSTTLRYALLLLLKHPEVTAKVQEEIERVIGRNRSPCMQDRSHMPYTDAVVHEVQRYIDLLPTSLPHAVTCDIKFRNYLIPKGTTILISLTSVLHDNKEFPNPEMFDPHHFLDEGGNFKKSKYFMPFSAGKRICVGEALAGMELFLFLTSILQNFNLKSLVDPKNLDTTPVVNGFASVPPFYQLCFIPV
Compound,pIC50 (human CYP11B2),pIC50 (CYP2C19),pIC50 (CYP3A4),pIC50 (CYP1A2),pIC50 (CYP2D6),pIC50 (CYP2C9),pIC50 (human CYP11B1)
C[C@@H](c1ccccc1-c1ccc(F)cc1)n1cncc1C(=O)N1CC[C@@H](N2CCOCC2)[C@@H](F)C1 [Compound 29],< 4.30,< 5.00,8.20,< 5.00,5.21,< 5.00,4.66
C[C@@H](c1ccccc1C1CCCC1)n1cncc1C(=O)N1CCC2NCCO[C@@H]2C1 (stereo partly shown) [Compound 48],4.81,< 5.00,8.26,< 5.00,< 5.00,< 5.00,4.95
CO[C@@H]1CN(C2CCN(C(=O)c3cncn3[C@@H](C)c3ccccc3-c3ccc(F)cc3)CC2)C[C@H]1O [Compound 23],< 4.30,< 5.00,8.47,< 5.00,5.01,< 5.00,4.58
C[C@@H](c1ccccc1-c1ccc(F)cc1F)n1cncc1C(=O)N1CCC2NCCO[C@@H]2C1 (stereo partly shown) [Compound 38],< 4.30,< 5.00,8.05,< 5.00,< 5.00,< 5.00,4.60
C[C@@H]1CN(C2CCN(C(=O)c3cncn3[C@@H](C)c3ccccc3-c3ccc(F)cc3)CC2)CC[C@H]1O [Compound 18],< 4.30,< 5.00,8.01,< 5.00,< 5.00,< 5.00,< 4.30
C[C@@H](c1ccccc1-c1ccc(F)cc1)n1cncc1C(=O)N1CCC(N2CCNC(=O)C2)CC1 [Compound 20],4.51,< 5.00,8.35,< 5.00,< 5.00,< 5.00,4.77
C[C@@H](c1ccccc1-c1cccc(F)c1)n1cncc1C(=O)N1CCC2NCCO[C@@H]2C1 (stereo partly shown) [Compound 36],< 4.30,< 5.00,8.02,< 5.00,< 5.00,< 5.00,4.49
CC(C)c1ccccc1[C@H](C)n1cncc1C(=O)N1CCC2NCCO[C@@H]2C1 (stereo partly shown) [Compound 47],5.05,< 5.00,8.07,< 5.00,5.03,< 5.00,4.34
C[C@@H](c1ccccc1-c1ccc(F)cc1)n1cncc1C(=O)N1CCC2NC(=O)COC2(C)C1 (stereo partly shown) [Compound 51],< 4.30,< 5.00,8.32,< 5.00,< 5.00,< 5.00,4.68
C[C@@H](c1ccccc1-c1ccc(F)cc1)n1cncc1C(=O)N1CCC(N2CC[C@@H](O)[C@H](F)C2)CC1 [Compound 14],< 4.30,< 5.00,8.21,< 5.00,< 5.00,< 5.00,4.66
C[C@@H](c1ccccc1-c1cc(F)cc(F)c1)n1cncc1C(=O)N1CCC2NCCO[C@@H]2C1 (stereo partly shown) [Compound 37],< 4.30,< 5.00,8.01,< 5.00,< 5.00,< 5.00,4.70
CO[C@@H]1CN(C2CCN(C(=O)c3cncn3[C@@H](C)c3ccccc3-c3ccc(F)cc3)CC2)CC[C@@H]1O [Compound 12],< 4.30,< 5.00,8.21,< 5.00,5.29,< 5.00,4.38
C[C@@H](c1ccccc1-c1ccc(F)cc1)n1cncc1C(=O)N1CC[C@@H](N2CCC(O)CC2)[C@@H](F)C1 [Compound 2],4.51,< 5.00,8.30,< 5.00,< 5.00,< 5.00,4.62
C[C@@H](c1ccccc1CN1CCC(F)CC1)n1cncc1C(=O)N1CCC2NCCO[C@@H]2C1 (stereo partly shown) [Compound 45],< 4.30,< 5.00,8.11,< 5.00,< 5.00,< 5.00,< 4.30
C[C@@H](c1ccccc1-c1ccc(F)cc1)n1cncc1C(=O)N1CC[C@H]2NCCO[C@@H]2C1 [Compound 4],< 4.30,< 5.00,8.24,< 5.00,5.31,< 5.00,4.86
"C[C@@H](c1ccccc1-c1ccc(F)cc1)n1cncc1C(=O)N1CCCC(N2CCC(C)(O)CC2)CC1 (single isomer, unassigned) [Compound 3a]",< 4.30,< 5.00,8.14,< 5.00,5.39,< 5.00,4.43
